Patent publication US6916923B2 (Hoffmann-La Roche Inc., priority 1999, dated 2005)

How the values were obtained:
[1] = molecular target: T1, Recombinant active human Cyclin E/CDK2 complexes (Homo sapiens, UniProt P24941); experiment: CDK2 FlashPlate Assay (inhibition of Rb phosphorylation); format: biochemical; settings: Cyclin E/CDK2, Rb substrate, 33P-ATP, 25 minutes at room temperature; read-out: Inhibition of Cdk2 - IC50 Range
T1 construct: made in house; host or cells: insect cells
Procedure: To determine inhibition of CDK2 activity, purified recombinant retinoblastoma (Rb) protein was coated on 96 well FlashPlates (New England Nuclear, Boston, Mass.). Rb is a natural substrate for phosphorylation by CDK2 (Herwig and Strauss Eurr. J. Biochem., Vol. 246 (1997) pp. 581-601 and references therein). Recombinant active human Cyclin E/CDK2 complexes were partially purified from extracts of insect cells. The active Cyclin E/CDK2 was added to the Rb-coated FlashPlates along with ^33P-ATP and dilutions of test compounds. Plates were incubated for 25 minutes at room temperature with shaking, then washed and counted in the Topcount scintillation counter (Packard Instrument Co., Downers Grove, Ill.). Dilutions of test compounds were tested in duplicate in each assay. The percent inhibition of Rb phosphorylation, which is a measure of the inhibition of CDK2 activity, was determined according to the following formula: [formula] where “test compound” refers to the average counts per minute of the test duplicates, “nonspecific” refers to the average counts per minute when no Cyclin E/CDK2 was added, and “total” refers to the average counts per minute when no compound was added.

[2] = tested on: colon adenocarcinoma line SW480; experiment: SW480 cell-based antiproliferative (MTT) assay; settings: Homo sapiens, SW480, 144 h, 1000 cells per well, 6 days post addition of test compound, read-out: Antiproliferative Activity SW480 (colon) Assay - IC50 Range
Procedure: (§1) The estrogen receptor negative epithelial breast carcinoma line (MDA-MB-435) was purchased from American Type Cell Culture Collection (ATCC; Rockville, Md.) and was grown in the medium recommended by ATCC. For analysis of the effect of the test compounds on growth of these cells, the cells were plated at 2000 cells per well in a 96-well tissue culture plate, and were incubated overnight at 37° C. with 5% CO2. The next day, the test compounds were dissolved in 100% dimethyl sulfoxide (DMSO) to yield a 10 mM stock solution. Each compound was diluted with sterile medium to 1 mM in a sufficient quantity to yield a final concentration of 120 μM. The compounds were then serially diluted in medium with 1.2% DMSO. One-fourth final volume of the diluted compounds was transferred to 96 well plates. Test compounds were assayed in duplicate. DMSO was added to a row of “control cells” such that the final concentration of DMSO in each well was 0.3%. Wells to which no cells were added served as the “blank.” Wells to which no inhibitor was added served as “no inhibitor control”. The plates were returned to the incubator, and 5 days post addition of test compound, were analyzed as described below.
(§2) 3-(4,5-Dimethylthiazole-2-yl)-2,5-diphenyl-2H-tetrazolium bromide (thiazolyl blue; MTT) was added to each well to yield a final concentration of 1 mg/mL. The plates were then incubated at 37° C. for 3 hours. The plates were centrifuged at 1000 rpm for 5 minutes prior to aspiration of the MTT-containing medium. The MTT-containing medium was then removed and 100 μL 100% ethanol was added to each well to dissolve the resulting formazan metabolite. To ensure complete dissolution, plates were shaken for 15 minutes at room temperature. Absorbencies were read in a microtiter plate reader (Molecular Dynamics) at a wavelength of 570 nm with a 650 nm reference. Percent inhibition was calculated by subtracting the absorbance of the blank (no cell) wells from all wells, then subtracting the division of the average absorbance of each test duplicate by the average of the controls from 1.00. Inhibitory concentrations (IC50) were determined from the linear regression of a plot of the logarithm of the concentration versus the percent inhibition.
(§3) The colon adenocarcinoma line SW480 and the colon carcinoma line HCT-116 also were obtained from the ATCC and were tested according to the same protocol provided above for MDA-MB435 cell based assay with the following modifications. Cell line SW480 was plated at 1000 cells per well and analyzed at 6 days post addition of the test compound. Cell line HCT-116 was plated at 1000 cells per well and analyzed at 4 days post addition of test compound.

[3] = tested on: estrogen receptor negative epithelial breast carcinoma line (MDA-MB-435); experiment: MDA-MB-435 cell-based antiproliferative (MTT) assay; settings: Homo sapiens, MDA-MB-435, 120 h, 2000 cells per well, 5 days post addition of test compound, read-out: Antiproliferative Activity of MDA-MB435 (breast) Assay - IC50 Range
Procedure: as §1, §2

[4] = tested on: colon carcinoma line HCT-116; experiment: HCT-116 cell-based antiproliferative (MTT) assay; settings: Homo sapiens, HCT-116, 96 h, 1000 cells per well, 4 days post addition of test compound, read-out: Antiproliferative Activity HCT 116 (colon) Assay - IC50 Range
Procedure: as §1, §2, §3

SMILES | IC50 [1] [µM] | IC50 [2] [µM] | IC50 [3] [µM] | IC50 [4] [µM]
Cc1[nH]nc2c1N=C(c1ccccc1F)c1cc(I)ccc1N2 [Compound B29, 3-methyl-5-(2-fluorophenyl)-7-iodo-pyrazolo[3,4][1,4]benzodiazepine] | 0.01 to 0.99 | 1.1 to 9.99 | 0.01 to 1 | 
CS(=O)(=O)c1ccc2c(c1)C(c1ccccc1)=Nc1c[nH]nc1N2 [Compound A14, 5-phenyl-7-methanesulfonyl-pyrazolo[3,4][1,4]benzodiazepine] | 1 to 9.99 |  |  | 10 to 30
Cc1[nH]nc2c1N=C(c1ccccc1Cl)c1cc(Cl)ccc1N2 [Compound B20, 3-methyl-5-(2-chlorophenyl)-7-chloro-pyrazolo[3,4][1,4]benzodiazepine] | 0.01 to 0.99 | 1.1 to 9.99 | 1.1 to 9.99 | 
Fc1ccccc1C1=Nc2c[nH]nc2Nc2ccccc21 [Compound A10, 5-(2-fluorophenyl)-pyrazolo[3,4][1,4]benzodiazepine] | 1 to 9.99 | 10 to 30 |  | 10 to 30
Clc1ccccc1C1=Nc2c[nH]nc2Nc2ccccc21 [Compound A21, 5-(2-chlorophenyl)-pyrazolo[3,4][1,4]benzodiazepine] | 0.01 to 0.99 | 10 to 30 |  | 10 to 30
Cc1[nH]nc2c1N=C(c1ccccc1)c1cc(Cl)ccc1N2 [Compound B19, 3-methyl-5-phenyl-7-chloro-pyrazolo[3,4][1,4]benzodiazepine] | 0.01 to 0.99 | 1.1 to 9.99 | 1.1 to 9.99 | 
c1ccc(C2=Nc3c[nH]nc3Nc3ccccc32)cc1 [Compound A9, 5-phenyl-pyrazolo[3,4][1,4]benzodiazepine] | 1 to 9.99 | 10 to 30 |  | 10 to 30
O=[N+]([O-])c1ccc2c(c1)C(c1ccccc1Cl)=Nc1c(n[nH]c1-c1ccccc1)N2 [Compound B23, 3-phenyl-5-(2-chlorophenyl)-7-nitro-pyrazolo[3,4][1,4]benzodiazepine] | 0.01 to 0.99 | 10 to 30 |  | 10 to 30
Cc1[nH]nc2c1N=C(c1ccccc1)c1cc(F)ccc1N2 [Compound B22, 3-methyl-5-phenyl-7-fluoro-pyrazolo[3,4][1,4]benzodiazepine] | 0.01 to 0.99 | 1.1 to 9.99 | 0.01 to 1 | 
COc1ccc2c(c1)C(c1ccccc1Cl)=Nc1c(n[nH]c1C)N2 [Compound B18, 3-methyl-5-(2-chlorophenyl)-7-methoxy-pyrazolo[3,4][1,4]benzodiazepine] | 0.01 to 0.99 | 1.1 to 9.99 | 1.1 to 9.99 | 
Cc1[nH]nc2c1N=C(c1ccccc1F)c1cc([N+](=O)[O-])ccc1N2 [Compound B31, 3-methyl-5-(2-fluorophenyl)-7-nitro-pyrazolo[3,4][1,4]benzodiazepine] | 0.01 to 0.99 | 0.01 to 1 | 0.01 to 1 | 
Cc1[nH]nc2c1N=C(c1ccccc1Cl)c1ccccc1N2 [Compound B30, 3-methyl-5-(2-chlorophenyl)-pyrazolo[3,4][1,4]benzodiazepine] | 0.01 to 0.99 | 1.1 to 9.99 | 1.1 to 9.99 | 
Cc1[nH]nc2c1N=C(c1ccccc1F)c1ccccc1N2 [Compound B21, 3-methyl-5-(2-fluorophenyl)-pyrazolo[3,4][1,4]benzodiazepine] | 0.01 to 0.99 | 0.01 to 1 | 1.1 to 9.99 | 
O=[N+]([O-])c1ccc2c(c1)C(c1ccccc1)=Nc1c[nH]nc1N2 [Compound A16, 5-phenyl-7-nitro-pyrazolo[3,4][1,4]benzodiazepine] | 0.01 to 0.99 |  |  | 10 to 30
N#Cc1ccc2c(c1)C(c1ccccc1F)=Nc1c(n[nH]c1CO)N2 [Compound B35, 3-hydroxymethyl-5-(2-fluorophenyl)-pyrazolo[3,4][1,4]-benzodiazepine-7-carbonitrile] | 0.01 to 0.99 | 0.01 to 1 | 0.01 to 1 | 
CCOC(=O)c1[nH]nc2c1N=C(c1ccccc1Cl)c1cc([N+](=O)[O-])ccc1N2 [Compound B2, 3-carboethoxy-5-(2-chlorophenyl)-7-nitro-pyrazolo[3,4][1,4]benzodiazepine] | 1 to 9.99 |  | 10 to 30 | 

Now from value to molecule:

IC50 [1] [µM] | IC50 [2] [µM] | IC50 [3] [µM] | IC50 [4] [µM] | SMILES
0.01 to 0.99 | 10 to 30 |  | 1.1 to 9.99 | NNC(=O)c1[nH]nc2c1N=C(c1ccccc1Cl)c1cc([N+](=O)[O-])ccc1N2 [Compound C12, N-amino-5-(2-chlorophenyl)-7-nitro-pyrazolo[3,4][1,4]benzodiazepine-3-carboxamide]
0.01 to 0.99 |  |  | 10 to 30 | O=C(NCCO)c1ccc2c(c1)C(c1ccccc1F)=Nc1c[nH]nc1N2 [Compound C2, N-(2-hydroxyethyl)-5-(2-fluorophenyl)-pyrazolo[3,4][1,4]benzodiazepine-7-carboxamide]
0.01 to 0.99 |  |  | 10 to 30 | CSc1ccc(-c2[nH]nc3c2N=C(c2ccccc2Cl)c2cc([N+](=O)[O-])ccc2N3)cc1 [Compound D11]
0.01 to 0.99 | 1.1 to 9.99 |  | 1.1 to 9.99 | NC(=O)c1ccc2c(c1)C(c1ccccc1F)=Nc1c[nH]nc1N2 [Compound D50]
0.01 to 0.99 | 0.01 to 1 | 0.01 to 1 |  | CC(=O)Nc1ccc2c(c1)C(c1ccccc1Cl)=Nc1c(n[nH]c1C)N2 [Compound C7, N-(3-methyl-5-(2-chlorophenyl)-pyrazolo[3,4][1,4]benzodiazepin-7-yl)-acetamide]
0.01 to 0.99 |  |  | 10 to 30 | O=[N+]([O-])c1ccc2c(c1)C(c1ccccc1)=Nc1c(n[nH]c1C1CC1)N2 [Compound D18]
0.01 to 0.99 | 0.01 to 1 | 0.01 to 1 |  | O=[N+]([O-])c1ccc2c(c1)C(c1ccccc1Cl)=Nc1c(n[nH]c1CO)N2 [Compound C14, 3-hydroxymethyl-5-(2-chlorophenyl)-7-nitro-pyrazolo[3,4][1,4]benzodiazepine]
0.01 to 0.99 | 0.01 to 1 | 0.01 to 1 |  | Cc1[nH]nc2c1N=C(c1ccccc1Cl)c1cc(N)ccc1N2 [Compound C4]
0.01 to 0.99 | 0.01 to 1 | 0.01 to 1 |  | Cc1[nH]nc2c1N=C(c1ccccc1Cl)c1cc(NS(C)(=O)=O)ccc1N2 [Compound C9, N-(3-methyl-5-(2-chlorophenyl)-pyrazolo[3,4][1,4]benzodiazepin-7-yl)-methanesulfonamide]
0.01 to 0.99 |  | 1.1 to 9.99 |  | COCc1[nH]nc2c1N=C(c1ccccc1Cl)c1cc([N+](=O)[O-])ccc1N2 [Compound C16, 3-methoxymethyl-5-(2-chlorophenyl)-7-nitro-pyrazolo[3,4][1,4]benzodiazepine]
0.01 to 0.99 |  | 0.01 to 1 |  | O=Cc1[nH]nc2c1N=C(c1ccccc1Cl)c1cc([N+](=O)[O-])ccc1N2 [Compound C13, 5-(2-chlorophenyl)-7-nitro-pyrazolo[3,4][1,4]benzodiazepine-3-carboxaldehyde]
0.01 to 0.99 | 0.01 to 1 | 0.01 to 1 |  | C=CC(=O)Nc1ccc2c(c1)C(c1ccccc1Cl)=Nc1c(n[nH]c1C)N2 [Compound C8, N-(3-methyl-5-(2-chlorophenyl)-pyrazolo[3,4][1,4]benzodiazepin-7-yl)-2-propenamide]
